According to US3955959A, “Herbicide for use in transplanted rice” (priority 1974, dated 1976):
In brackets after ≈: the same amount, converted by molar mass.

Columns and labels:
Aj (Aneiliema japonica) = test: Example 1 field test, weed control in transplanted rice, Iri, Korea; type: in vivo; settings: av. of 36 and 63 DAT
Excerpt: (§1) In the field test 48 day-old seedlings (Watanabe variety) were transplanted to plots 2.5 × 6 m. seeded with the weed seeds indicated in Table 1. At 5 and 10 DAT periods, the herbicides were applied to the plants (now at the 1.2 and 2.0 leaf stage, respectively, of grass weed) at the indicated rate in kilograms per hectare (kg/ha). The weed control and rice injury results for 3 replications are reported in percentages as of the indicated times of observation. The percentages given in the "Perennials" column are based on the weight of the weeds at 63 DAT, i.e., 42 gms/3.6 m^2 for the weedy check.

Ci (Cyperus iria) = test: as above; type: in vivo; settings: av. of 36 and 63 DAT
Excerpt: as §1

[1] = test system: Eo (Echinochloa oryzicola); test: as above; type: in vivo; settings: av. of 36 and 63 DAT
Excerpt: as §1

[2] = test system: Mv (Monochoria vaginalis); test: as above; type: in vivo; settings: av. of 36 and 63 DAT
Excerpt: as §1

transplanted rice = test: Example 2 field test, crop injury; settings: obs. 63 DAT
Procedure: (§2) In the tests described in the tables below, the herbicides were formulated and used in granular form in conventional manner. […] The commercial herbicide used was a granular product having 5% active ingredient.
(§3) In the field tests of the herbicide of this invention with transplanted rice, the rice seedlings were grown in conventional manner, by seeding the rice in a typical seedbed of sandy loam to clay soil of the country wherein the test was conducted. For laboratory and greenhouse work the seedlings were obtained by seeding rice in a mixture of soil, e.g., Ray silt loam, and peat in wood flats. For purposes of testing the herbicides on younger rice seedlings (infant or Dapog) the rice was usually allowed to grow for 6-15 days before lifting for transplanting. Older (ordinary) rice plants were usually grown for a period of about 2-3 weeks, or as much as about 7 weeks before lifting. Since the period of growth is dependent upon climatic conditions, a better measure of when to transplant the rice seedling is the leaf stage of growth; for infant or Dapog rice the seedling is lifted at the 1.5-2 leaf stage of growth, and for ordinary seedlings at the 2.5-5 leaf stage. The seedlings were then transplanted to the test plots for evaluation of the herbicide for injury against weed species present with the transplanted rice. The herbicides were then applied to the growth medium of the weeds and transplant rice, either preemergent or postemergent with respect to the weeds and postemergent with respect to the transplanted rice. Application times are designated in the tables as "DAT", meaning "days after transplant". Application rates given in the tables refer to the amount of active ingredient used.
Rice seedlings (ordinary) of Tainan No. 5 variety (japonica) were transplanted at 19 days of growth. Granular formulations of Herbicides A and B were applied at the 1 leaf stage of grass weed (4 DAT) and 2.5 leaf stage of grass weed (10 DAT). Observations were made at 63 DAT and results reported in Table 2 as an average of 3 replications.

[3] = test system: Grass: Ec and Ecol (Echinochloa crusgalli, Echinochloa colonum); test: Example 3 field test on Dapog rice, weed control, Munoz, Philippines; type: in vivo; settings: obs. 42 DAT
Excerpt: (§4) Treatments were replicated four times.

[4] = test system: ordinary transplanted rice; test: Example 4 field test, crop injury; settings: obs. 36 DAT
Procedure: as §2, §3
(§5) In this example comparative field tests were conducted with Herbicides A and B on ordinary transplanted rice at Munoz, Philippines.
(§6) Twenty-one (21) day-old ordinary wet bed seedlings of the Fortuna variety were transplanted to field plots and Herbicides A and B applied at 5 DAT and 14 DAT. The field plots were overseeded with barnyardgrass (E. crusgalli) at 2 kgs/ha. Treatments were replicated four times.

[5] = test system: ordinary transplanted rice; test: Example 4 field test, rice yield; type: in vivo, rice (Fortuna variety)
Procedure: as §2, §3, §5, §6

[6] = test system: Obw (other broadleaf weeds); test: Example 5 field test, weed control, JAAPR, Japan; type: in vivo; settings: 1.5 kg/ha, 7 DAT
Procedure: The rice seedlings were grown to the 1.7 leaf stage for infant seedlings and to the 5.5 leaf stage for ordinary seedlings. Two days after puddling the soil in which the seedlings were to be transplanted, both infant and ordinary seedlings were transplanted into plots 8.5 m^2.
The weed symbol "Obw" represents "other broadleaf weeds" of unspecified identity.

[7] = Example 10 fish toxicity, Japanese protocol; type: in vivo, carp; settings: carp, in vivo, read-out: Medium Lethal Concentration
Procedure: In view of the importance of fish toxicological considerations, tests were conducted, using carp according to the Japanese protocol, to compare toxicity data for Herbicides A and B; results of those tests are shown in Table 10.

[8] = test system: weeds in transplanted rice; test: Field tests / general herbicidal activity in transplanted rice; type: in vivo; settings: field tests
[9] = test system: weeds in ordinary transplanted rice; test: Example 4 field test, overall weed control; type: in vivo
Excerpt: as §4

Structure (SMILES): CCCCOCN(C(=O)CCl)c1c(CC)cccc1CC [Herbicide B, n-(butoxymethyl)-2',6'-diethyl-2-chloroacetanilide, reference compound]
- % Weed Control (Aj) (Aj (Aneiliema japonica); 5 DAT, 1.0 kg/ha): 79%
- % Weed Control (Aj) (Aj (Aneiliema japonica); 5 DAT, 1.5 kg/ha): 76%
- % Weed Control (Aj) (Aj (Aneiliema japonica); 5 DAT, 3.0 kg/ha): 85%
- % Weed Control (Aj) (Aj (Aneiliema japonica); 10 DAT, 1.0 kg/ha): 58%
- % Weed Control (Aj) (Aj (Aneiliema japonica); 10 DAT, 1.5 kg/ha): 77%
- % Weed Control (Aj) (Aj (Aneiliema japonica); 10 DAT, 3.0 kg/ha): 78%
- % Weed Control (Ci) (Ci (Cyperus iria); 5 DAT, 1.0 kg/ha): 98%
- % Weed Control (Ci) (Ci (Cyperus iria); 5 DAT, 1.5 kg/ha): 97%
- % Weed Control (Ci) (Ci (Cyperus iria); 5 DAT, 3.0 kg/ha): 99%
- % Weed Control (Ci) (Ci (Cyperus iria); 10 DAT, 1.0 kg/ha): 54%
- % Weed Control (Ci) (Ci (Cyperus iria); 10 DAT, 1.5 kg/ha): 100%
- % Weed Control (Ci) (Ci (Cyperus iria); 10 DAT, 3.0 kg/ha): 93%
- % Weed Control (Eo) ([1]; 5 DAT, 1.0 kg/ha): 64%
- % Weed Control (Eo) ([1]; 5 DAT, 1.5 kg/ha): 89%
- % Weed Control (Eo) ([1]; 5 DAT, 3.0 kg/ha): 92%
- % Weed Control (Eo) ([1]; 10 DAT, 1.0 kg/ha): 68%
- % Weed Control (Eo) ([1]; 10 DAT, 1.5 kg/ha): 83%
- % Weed Control (Eo) ([1]; 10 DAT, 3.0 kg/ha): 77%
- % Weed Control (Mv) ([2]; 5 DAT, 1.0 kg/ha): 43%
- % Weed Control (Mv) ([2]; 5 DAT, 1.5 kg/ha): 55%
- % Weed Control (Mv) ([2]; 5 DAT, 3.0 kg/ha): 70%
- % Weed Control (Mv) ([2]; 10 DAT, 1.0 kg/ha): 58%
- % Weed Control (Mv) ([2]; 10 DAT, 1.5 kg/ha): 75%
- % Weed Control (Mv) ([2]; 10 DAT, 3.0 kg/ha): 69%
- % Crop Injury, stand (transplanted rice; 4 DAT, 1.0 kg/ha): 0%
- % Crop Injury, vigor (transplanted rice; 4 DAT, 1.0 kg/ha): 0%
- % Crop Injury, stand (transplanted rice; 4 DAT, 1.5 kg/ha): 0%
- % Crop Injury, vigor (transplanted rice; 4 DAT, 1.5 kg/ha): 0%
- % Crop Injury, stand (transplanted rice; 4 DAT, 3.0 kg/ha): 0%
- % Crop Injury, vigor (transplanted rice; 4 DAT, 3.0 kg/ha): 0%
- % Crop Injury, stand (transplanted rice; 10 DAT, 1.0 kg/ha): 0%
- % Crop Injury, vigor (transplanted rice; 10 DAT, 1.0 kg/ha): 0%
- % Crop Injury, stand (transplanted rice; 10 DAT, 1.5 kg/ha): 0%
- % Crop Injury, vigor (transplanted rice; 10 DAT, 1.5 kg/ha): 0%
- % Crop Injury, stand (transplanted rice; 10 DAT, 3.0 kg/ha): 0%
- % Crop Injury, vigor (transplanted rice; 10 DAT, 3.0 kg/ha): 0%
- % Weed control, Grass (Ec and Ecol) ([3]; 5 DAT, 1.0 kg/ha): 100%
- % Weed control, Grass (Ec and Ecol) ([3]; 5 DAT, 1.5 kg/ha): 100%
- % Weed control, Grass (Ec and Ecol) ([3]; 5 DAT, 3.0 kg/ha): 100%
- % Weed control, Grass (Ec and Ecol) ([3]; 14 DAT, 1.0 kg/ha): 0%
- % Weed control, Grass (Ec and Ecol) ([3]; 14 DAT, 1.5 kg/ha): 0%
- % Weed control, Grass (Ec and Ecol) ([3]; 14 DAT, 3.0 kg/ha): 60%
- Crop Injury (%) ([4]; 5 DAT, 1.0 kg/ha): 0%
- Crop Injury (%) ([4]; 5 DAT, 1.5 kg/ha): 0%
- Crop Injury (%) ([4]; 5 DAT, 3.0 kg/ha): 0%
- Crop Injury (%) ([4]; 14 DAT, 1.0 kg/ha): 0%
- Crop Injury (%) ([4]; 14 DAT, 1.5 kg/ha): 0%
- Crop Injury (%) ([4]; 14 DAT, 3.0 kg/ha): 0%
- yield vs hand weeded check ([5]; 1.0 kg/ha, 14 DAT): statistically significantly lower than the hand weeded check
- Yield (% of H.W. Check) ([5]; 5 DAT, 1.0 kg/ha): 115%
- Yield (% of H.W. Check) ([5]; 5 DAT, 1.5 kg/ha): 110%
- Yield (% of H.W. Check) ([5]; 5 DAT, 3.0 kg/ha): 100%
- Yield (% of H.W. Check) ([5]; 14 DAT, 1.0 kg/ha): 82%
- Yield (% of H.W. Check) ([5]; 14 DAT, 1.5 kg/ha): 86%
- Yield (% of H.W. Check) ([5]; 14 DAT, 3.0 kg/ha): 94%
- control of Obw in words [6]: complete control
- % Weed Control (Obw) ([6]; infant seedlings): 100%
- % Weed Control (Obw) ([6]; ordinary seedlings): 71%
- LC50 at 48 h ([7]; 48 hours): 1 µg/mL (≈ 3.21 µM)
- LC50 at 96 h ([7]; 96 hours): 0.76 µg/mL (≈ 2.44 µM)
- latest/optimum application stage of weeds [8]: 1 leaf stage
- control of all weeds ([9]; 5 DAT): complete control of all weeds
- weed control in words ([9]; 14 DAT, 1.0 and 1.5 kgs/ha): nil
- weed control ([9]; 14 DAT, 3.0 kgs/ha): 50%
